Columns and labels:
[1] = test system: prostate cancer patients with a history of metastatic bone disease; experiment: double-blind, placebo-controlled clinical study of zoledronic acid: skeletal-related events; assay type: in vivo, human; conditions: for patients with at least one skeletal-related event: i.v. every 3 weeks, placebo 44.2% (N=208); for patients with pathologic fractures: placebo 22.1%; for median time to the first skeletal-related event: placebo 320 days
Source text: Skeletal-related events (SREs) are defined as pathologic bone fracture events, spinal cord compression events, surgery to bone, radiation therapy to bone (including the use of radioisotopes) and a change of antineoplastic therapy to treat bone pain. Thus, SREs are the primary end-points in this study. The key efficacy endpoints are the proportion of patients having at least one SRE and the time to first SRE.
Secondary objectives are to assess the effect of zoledronic acid therapy on pain scores, analgesic use, performance status, Quality of Life scores, time to termination of active study participation, and to assess the safety and tolerability of zoledronate. Changes in bone resorption and formation markers are also evaluated. Bone mineral density measurements are evaluated in patients at selected clinical centers. In addition, time to progression of disease in bone and time to overall progression of disease are evaluated.
This study is an international, multicenter, randomized, double-blind, placebo-controlled, parallel study. […] The rising serum PSA level is documented by three consecutively rising serum PSA measurements (i.e., the third PSA level is to be>the second PSA level which is >the first PSA level which is >the nadir serum PSA concentration achieved during first-line hormonal therapy for metastatic prostate cancer), each separated from the other by at least two weeks. The rising serum PSA level represents an “early” event in the development of progressive metastatic disease.
Patients are randomized in a double-blind fashion to receive either zoledronate 4 mg intravenously, or zoledronate 8 mg intravenously, or a placebo intravenous infusion every three weeks in addition to their antineoplastic therapy. The randomized treatment assignment ratio is to be 1:1:1. In addition, all patients are to receive 500 mg of calcium orally and a multivitamin tablet (containing 400-500 I.U. of vitamin D) daily throughout the study.
The occurrence of skeletal-related events (SRE's) is collected throughout the trial for each patient in order to determine the proportion of patients experiencing at least one SRE, the time to the first SRE, and the skeletal morbidity rate (see section 4). Time to progression of disease in bone is assessed centrally (central radiologist) by review of serial bone radiographic studies. Time to overall progression of disease is determined by the patient's treating physician: by evaluating the central assessments (central radiologist) of serial bone radiographic studies; by evaluating the central assessments (central radiologist) of appropriate serial radiographic studies of non-skeletal tumor sites, if present; by evaluating serial serum PSA levels; and by evaluating serial patient weight measurements. Quality of Life, performance status, health care utilization and productivity loss data, and pain, and analgesic use scores are determined serially throughout the study. This information is also collected for those patients who discontinue active therapy within 24 months from the date of randomization into the study. Information about adverse events which occur during the patient's clinical course is collected throughout the study.
The study is made up of two phases, phase 1, the Efficacy and Safety Phase, and phase 2, the Extension Phase. The primary efficacy analysis is performed at the completion of phase 1, the Efficacy and Safety Phase, which consists of 60 weeks (20 cycles) of study treatment. Phase 2 consists of an additional 36 weeks (12 cycles) of study therapy. The primary purpose of phase 2 is to obtain long-term zoledronate treatment safety and survival data, however efficacy data will continue to be collected. […] No interim analyses are planned. […]

[2] = test system: subcutaneous prostate cancer cell line tumours; conditions: subcutaneous prostate cancer cell line tumours (Corey et al.); cited from earlier work
[3] = test system: prostate cancer cell lines; conditions: in vitro treatment (Brown et al.; Lee et al.); cited from earlier work

O=P(O)(O)C(O)(Cn1ccnc1)P(=O)(O)O [zoledronic acid, 2-(imidazol-1yl)-1-hydroxyethane-1,1-diphosphonic acid]
effect on skeletal-related events ([1]; 4 mg 15-minute infusions every 3 weeks, metastatic prostate cancer refractory to hormonal therapy): significantly reduce skeletal-related events | tolerability ([1]; 4 mg given as a 15-minute infusion): well-tolerated | efficacy in the treatment of bone metastases vs. placebo ([1]; prostate cancer patients, double blind, placebo-controlled): statistically significant efficacy benefit over placebo | patients with at least one skeletal-related event ([1]; zoledronic acid 4 mg group (N=214), p=0.021 vs. placebo): 33.2% | patients with pathologic fractures ([1]; zoledronic acid 4 mg group, p=0.015 vs. placebo): 13.1% | median time to the first skeletal-related event ([1]; zoledronic acid 4 mg group, p=0.011 vs. placebo): not reached | patients with at least one skeletal-related event ([1]; zoledronic acid 8/4 mg group (N=221), p=0.222 vs. placebo): 38.5% | patients with pathologic fractures ([1]; zoledronic acid 8/4 mg group, p=0.054 vs. placebo): 14.9% | median time to the first skeletal-related event ([1]; zoledronic acid 8/4 mg group, p=0.491 vs. placebo): 363 days | tumour volume [2]: no significant decrease in tumour volume | growth of prostate cancer cell lines [3]: significantly reduced the growth of the cell lines

From US20040157799A1, “Pharmaceutical uses of bisphosphonates” (priority 2004, published 2004)
